Read-outs that look alike come from different tables or passages of the source. Each block holds one compound with its values, some of them ahead of it.
What was measured:
[1] = format: in vivo, rat (male, Sprague-Dawley)
Experimental: (§1) 3β-Hexadecanoyloxy-5α-cholest-8(14)-en-15-one (5 mg; dissolved in 0.25 ml of triolein), hereafter referred to as the "palmitate ester", or 3β-hemisuccinoyloxy-5α-cholest-8(14)-en-15-one (5 mg; suspended in 0.25 ml of triolein through the use of a tight-fitting all-glass homogenizer), hereafter referred to as the "hemisuccinate ester", were administered subcutaneously once a day at about 12 P.M. to each of eight and six rats, respectively. Control animals (8) received daily injections of triolein (0.25 ml).
The average percentage weight gain over the total experimental period in the palmitate, hemisuccinate, and triolein groups were (mean±S.E.M.) 40.5±4.6, 40.7±1.6, and 43.6±3.3, respectively.

[2] = test system: liver; format: in vivo, rat (male, Sprague-Dawley); details: 5 mg s.c. once a day
Experimental: as §1
The mean values of the liver weights of the triolein-treated rats (9.6 g±0.08, S.E.M.). S.E. differed from those of the palmitate ester-treated rats (11.4 g±0.5, S.E.M.). Similarly, the mean value of the liver weights, when expressed as a percentage of the total body weight, of the triolein-treated rats (4.09%±0.08, S.E.M.) differed from the mean value for the palmitate ester-treated rats (4.53%±0.09, S.E.M.).

[3] = test system: sterol biosynthesis in L cells; test: Inhibition of sterol synthesis from [1-14C]acetate in L cell cultures; format: cell-based; details: Mus musculus; L cell cultures; read-out: Concentrations Required for 50% Inhibition of Sterol Synthesis
Experimental: The effect of various 15-oxygenated sterols on sterol biosynthesis in L cells and in primary cultures of mouse liver cells was tested essentially under conditions described in detail previously [A. A. Kandutsch and H. W. Chen, J. Biol. Chem., Vol. 248, pp. 8408-8417 (1973) and A. A. Kandutsch and H. W. Chen, J. Biol. Chem., Vol. 249, pp. 6057-6061 (1974`)].
(§2) The primary liver cell cultures were prepared from 16-day-old (C57BL/6J fetuses and grown in chemically defined medium (serum-free) as described in the above cited publications. The L cells, a subline of NCTC clone 929 mouse fibroblasts, were grown in chemically defined medium (serum-free) as described in the publications. These L cells are transformed fibroblasts which are regarded as malignant since they will grow as tumors if injected into the mouse strain from which they were initially obtained.
(§3) The preparation of steroid-containing media, procedures for assays of the conversion of [1-^14 C]acetate into digitonin-precipitable sterols, fatty acids, and CO2 and methods for the measurement of DNA, protein, and HMG-CoA reductase were as described in the published articles. L cell cultures were preincubated with the 15-oxygenated sterols and their derivatives for 4 hours, then [1-^14 C]acetate was added at a concentration of 4 μmoles per ml (4 μCi per ml); or the L cell cultures were incubated for 5 hours with the 15-oxygenated sterols before they were harvested for determination of microsomal HMG-CoA reductase activity.
The test compounds were tested over a range of at least 4 concentrations and the assay was repeated until the concentration of test compound required to produce 50% inhibition was located on the steeply declining portion of an activity vs. concentration plot. To diminish any possible effects of generalized differences in cellular metabolism, the rates of sterol synthesis from [1-^14 C]acetate were calculated as the ratio of [^14 C]sterols to [^14 C]fatty acids as described in the two cited articles by Kandutsch and Chen.

[4] = test system: HMG-CoA reductase; test: Reduction of the activity of HMG-CoA reductase in L cell cultures; format: cell-based, mouse; details: read-out: Concentrations Required for 50% Reduction of the Activity of HMG-CoA Reductase
Experimental: as §2, §3
A number of the 15-oxygenated sterols have also been tested with respect to their effects on the activity and/or levels of the enzyme HMG-CoA reductase (3-hydroxy-3-methylglutaryl coenzyme A reductase) in the L cells and in the liver cells. As noted previously, this enzyme catalyzes the reduction of 3-hydroxy-3-methylglutaryl coenzyme A to yield mevalonic acid, an essential intermediate in the biosynthesis of sterols and of a number of other essential compounds in cells.
Using the technique described by Kandutsch and Chen in the article cited in the previous example, the concentrations of various 15-oxygenated sterols required to reduce the levels of activity of HMG-CoA reductase by 50% was determined in the cells of the L cells in culture and of the primary cultures of liver cells.

[5] = test system: serum cholesterol; test: Effect on serum cholesterol levels in rats, daily subcutaneous injection (Examples 41, 42); format: in vivo, rat (male, Sprague-Dawley); details: for Serum Cholesterol (Mean ± S.E.M.): 5 mg s.c. once a day in triolein; for % Reduction of serum cholesterol (Mean ± S.E.M.): from initial levels in same rats
Experimental: Male rats of the Sprague-Dawley strain were fed Purina rat chow ad libidum. The rats were maintained on a light (7 A.M.-6 P.M.) -dark (6 P.M.-7 A.M.) cycle throughout the study and for a period of at least 4 days prior to the initiation of the study.
as §1
Blood samples were taken from the rats periodically and the serum cholesterol concentrations measured, in duplicate, by the method of Abell et al., J. Biol. Chem., Vol. 195, pp. 357-366 ([…]).
Following generally the procedure described in Example 41, 3β-Ethoxy-14α-ethyl-5α-cholest-7-en-15-one (5 mg) in triolein (0.25 ml) was administered subcutaneously once a day to each of eight rats. Control animals (8) received daily injections of triolein (0.25 ml).
Similarly, 5α-cholest-8(14)-en-3β-ol-15-one (2mg) in (0.2 ml) olive oil or 5.0 mg in 0.5 ml of olive oil) was administered subcutaneously once a day to each of a group of rats. The 2 mg dose was administered to 12 rats, while a like number of rats received daily injections of 0.2 ml olive oil. 5 mg doses were administered to each of 6 rats, while 6 control animals received daily injections of 0.5 ml olive oil. The rats used in this study initially weighed between 110 and 190 grams.

[6] = test system: plasma cholesterol; details: cited from earlier work
[7] = test system: sterol biosynthesis in L cells; details: cited from earlier work; for inhibitory action on the synthesis of sterols (in words): L cells in culture
[8] = test system: sterol biosynthesis in primary cultures of mouse liver cells; details: cited from earlier work; for inhibitory action on the synthesis of sterols (in words): primary cultures of mouse liver cells

average percentage weight gain (mean±S.E.M.) ([1]; 5 mg s.c. once a day, total experimental period): 40.7±1.6%
differences in growth versus vehicle-treated rats (in words) ([1]; daily s.c.): no significant differences in the growth
difference of liver weights from triolein-treated rats (in words) [2]: no significant difference
liver weight (mean, S.E.M.) [2]: 10.6 g
IC50 [3]: 3200 nM
IC50 [4]: 3000 nM
Compound: CC(C)CCC[C@@H](C)[C@H]1CC(=O)C2=C3CC[C@H]4C[C@@H](OC(=O)CCC(=O)O)CC[C@]4(C)[C@H]3CC[C@@]21C [3β-hemisuccinoyloxy-5α-cholest-8(14)-en-15-one]
liver weight as percentage of total body weight (mean, S.E.M.) [2]: 4.36%
Serum Cholesterol (Mean ± S.E.M.) ([5]; day 0 (initial)): 89.1 ± 2.6 mg per 100 ml
Serum Cholesterol (Mean ± S.E.M.) ([5]; day 3): 78.6 ± 2.4 mg per 100 ml
Serum Cholesterol (Mean ± S.E.M.) ([5]; day 6): 72.5 ± 1.9 mg per 100 ml
Serum Cholesterol (Mean ± S.E.M.) ([5]; day 9): 72.3 ± 1.6 mg per 100 ml
Serum Cholesterol (Mean ± S.E.M.) ([5]; day 12): 58.8 ± 2.8 mg per 100 ml
decrease in serum cholesterol levels (in words) ([5]; 5 mg s.c. once a day, after 3, 6, 9, 12 days vs same rats before, after 12 days vs triolein): significant decreases in serum cholesterol levels
% Reduction of serum cholesterol (Mean ± S.E.M.) ([5]; 5 mg s.c. once a day, day 3): 13.5 ± 4.4%
% Reduction of serum cholesterol (Mean ± S.E.M.) ([5]; 5 mg s.c. once a day, day 6): 18.1 ± 4.1%
% Reduction of serum cholesterol (Mean ± S.E.M.) ([5]; 5 mg s.c. once a day, day 9): 18.4 ± 3.5%
% Reduction of serum cholesterol (Mean ± S.E.M.) ([5]; 5 mg s.c. once a day, day 12): 33.9 ± 2.9%

Compound: CC(C)CCC[C@@H](C)[C@H]1CC[C@H]2[C@@H]3C(=O)C=C4C[C@@H](O)CC[C@]4(C)[C@H]3CC[C@]12C [7-ketocholesterol]
plasma cholesterol-lowering effect in mice (in words) [6]: no significant plasma cholesterol-lowering effect in mice
inhibitory action on the synthesis of sterols (in words) [7]: strong inhibitory action
inhibitory action on the synthesis of sterols (in words) [8]: strong inhibitory action

Compound: C[C@H](CCCC(C)(C)O)[C@H]1CC[C@H]2[C@@H]3CC=C4C[C@@H](O)CC[C@]4(C)[C@H]3CC[C@]12C [Cholest-5-en-3β,25-diol]
plasma cholesterol-lowering effect in mice (in words) [6]: no significant plasma cholesterol-lowering effect in mice
IC50 ([7]; L cell cultures, as reported by Kandutsch and Chen, read-out: Concentrations Required for 50% Inhibition of Sterol Synthesis): 70 nM
inhibitory action on the synthesis of sterols (in words) [7]: strong inhibitory action
IC50 ([8]; liver cells, read-out: lowest previously reported concentration for 50% inhibition of sterol synthesis): 1000 nM
IC50 ([8]; primary cultures of liver cells, as reported by Kandutsch and Chen, read-out: Concentrations Required for 50% Inhibition of Sterol Synthesis): 1000 nM
inhibitory action on the synthesis of sterols (in words) [8]: strong inhibitory action

From patent US4202891A, “15-Oxygenated sterol compounds and the use of such compounds to inhibit the biosynthesis of sterols” (priority 1977, dated 1980)
